Data on four compounds can be found in patent US12595269B2, “Morpholine-like monoamine releasers” (Solvonis Therapeutics Ireland Holdings Limited, priority 2022, dated 2026).

Series [1] can be described thus: In vitro intrinsic clearance in rat liver microsomes. Type of series: in vitro ADME. The note with it: pH 7.4, read-out: Intrinsic clearance (μL/min/mg protein) rat. As to the method:
Methods and Procedure: The general procedure involves incubating test compounds with liver microsomes and subsequently detecting the compounds to determine intrinsic clearance. Clearance was estimated from the rate of depletion k (min−1), the volume of the incubation V (mL), and the amount of microsomal proteins in the incubation M (mg). Intrinsic clearance is defined by the following equation: Clint k*V/M.
Values for CLint are expressed as μL/min/mg protein. Verapamil and dextromethorphan were used as positive controls for CYP3A4 and CYP2D6 isoforms, respectively, to confirm metabolic activity.
Positive control and compounds for testing were dissolved in an appropriate solvent to obtain a 10 mM stock solution, which was diluted to achieve a final working solution, as detailed in the above table. Stock solutions were usually prepared at 10 mM DMSO, whereas working solutions were made by adding 5 μL 10 mM DMSO+995 μL MeOH. However, this concentration can be varied, e.g., when the test item is not soluble in the selected solvent.
Prior to experimentation, frozen liver microsomes were thawed in a water bath at 37° C. and kept on ice until use. The microsomes were then diluted with 50 mM potassium phosphate buffer pH 7.4 to a protein concentration of 0.56 mg/mL. To prepare test and control items in final incubation conditions, 5 μL of test compound and positive control working solutions were added to 445 μL of microsomes incubation mixture at 0.56 mg/mL and 50 μL of regenerating system.
As it relates to the automated incubation procedure for microsomes incubation, the following procedure was followed: • 1. 150 μL of quenching solution (ACN containing an appropriate Internal Standard, i.e. Rolipram and Diclofenac for positive and negative ion mode, respectively) was manually dispensed or dispensed by using the Hamilton system in each well of 96 deep well 1 mL plates. • 2. 800-1000 μL-aliquots of NADPH regenerating system were pre-warmed at 37° C. for 5 minutes. • 3. 5 μL of 50 μM test items and control were added to 445 μL of the 0.56 mg/mL microsomes solution, and the incubation mixture was pre-warmed in a 96 deep well 2 mL plate (incubation plate) at 37° C. for 5 minutes. • 4. […] Metabolic stability was calculated from the ratio of peak area of the remaining test or control item with internal standard versus time. • 9. […] The integrated peak areas of the test and control items at the selected time points were divided by the respective peak areas of the IS, and the percent of parent remaining was calculated by normalizing the peak area ratio of parent to IS at 0 min. Observed rate constant (kobs) for parent degradation was calculated by determining the slope of the line of the graph of the natural log of percentage parent remaining versus time of incubation. […]
(Liver microsomes are a subcellular fraction often used to study metabolism.)

A further series deals with T1, SERT (serotonin release) (Rattus norvegicus, UniProt P31652).
T1 construct: from tissue; host or cells: rat frontal cortex, crude synaptosomes
T1 sequence (P31652 whole entry): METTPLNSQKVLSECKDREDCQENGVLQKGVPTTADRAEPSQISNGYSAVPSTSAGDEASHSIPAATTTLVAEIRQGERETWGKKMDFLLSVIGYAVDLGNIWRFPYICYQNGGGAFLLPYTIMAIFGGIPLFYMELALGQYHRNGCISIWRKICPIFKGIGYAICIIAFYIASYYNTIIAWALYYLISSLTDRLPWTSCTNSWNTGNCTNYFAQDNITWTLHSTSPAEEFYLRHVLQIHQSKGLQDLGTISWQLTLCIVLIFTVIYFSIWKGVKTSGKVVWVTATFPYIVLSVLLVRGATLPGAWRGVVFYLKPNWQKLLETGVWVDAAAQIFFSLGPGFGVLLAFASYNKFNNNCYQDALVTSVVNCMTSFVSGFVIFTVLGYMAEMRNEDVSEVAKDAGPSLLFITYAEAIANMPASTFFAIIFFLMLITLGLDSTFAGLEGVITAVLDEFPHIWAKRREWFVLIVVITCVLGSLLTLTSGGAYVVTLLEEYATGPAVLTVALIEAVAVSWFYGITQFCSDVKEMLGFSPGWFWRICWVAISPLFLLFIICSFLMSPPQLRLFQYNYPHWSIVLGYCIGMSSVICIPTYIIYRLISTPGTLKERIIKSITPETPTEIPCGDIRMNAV
The experiment in a line: Serotonin release filtration assay in rat cortex synaptosomes. The format is cell-based. On the procedure: Methods and Procedure—Release: The potency of the disclosed compounds for stimulating dopamine (DA) release was measured by an endpoint release filtration assay in a 96-well format using rat synaptosomes, essentially as described by Sandtner et al., Mol. Pharmacol., 2016; 89(1):165-75, and Baumann et al., Neuropsychopharmacol., 2013; 38:552-562, with some variations.
One male rat was sacrificed and striatum/cortex regions were dissected over ice. The striatum portions were weighed and put in a glass tube for homogenization, containing ice-cold 0.32 M sucrose (dilution 1:24 w/v), while the frontal cortex tissue was diluted in ice-cold 0.32 M sucrose, 1:20 w/v. Tissues were homogenized and centrifuged for 10 mins at 1000×g. The two supernatants from striatum and cortex (crude synaptosomes) were retained on ice until use.
Test compounds were then serially diluted 1:4 in neat DMSO as concentration-response curves (CRC) of 11 points. To each well of a 2-mL 96 deep-well plate (Whatman UNIPLATE 96 well) were added: 2 μL of CRC of test compounds or 2 μL of DMSO (no-release condition) or 2 μL of MDMA 10 mM solution (final 50 μM, for maximal release), followed by 200 μL/well of complete Krebs-phosphate buffer (126 mM NaCl, 2.4 mM KCl, 0.83 mM CaCl2, 0.8 mM MgCl2, 0.5 mM KH2PO4, 0.5 mM Na2SO4, 11.1 mM Glucose, 0.05 mM pargyline, 1 mg/mL ascorbic acid, freshly added, pH 7.4), containing 1 μM reserpine to block vesicular uptake of substrate. Desipramine (100 nM) and citalopram (100 nM) were also added to the release assay buffer in order to inhibit NET and SERT uptake, respectively. The final compound dilution, then, was 1:200 in 0.5% DMSO.
The raw data (cpm) from residual radioactivity onto the filter were elaborated for the determination of pEC50/EC50 values. Specifically, the compound effect was expressed as the percent of maximal release obtained with 50 μM MDMA (100% release) in comparison to vehicle (0.5% DMSO, 0% release). Both MDMA and D-amphetamine in CRC were used as internal controls in each release experiment. In each plate, for both 0% and 100% of release, the signal window is monitored performing Z′ calculations using raw data of four replicates.
Synaptosomes were then loaded with ^3H-5HT for 60 minutes at RT. After dispensing loaded synaptosomes onto a compound plate (200 μL/well), the release reaction proceeded for an additional 15 minutes. Stop by filtration, counting, and data elaboration were performed as described for DA release.

Where [2] appears, read: rat cortex synaptosomes, % of release by 50 μM MDMA, read-out: SERT release pEC50 (converted).

Like-named read-outs stand apart in the source and are kept apart here.

As to `CNC(C)Cc1ccc2c(c1)OCO2` (centres unmarked) [MDMA, reference compound], in series [1], the microsomal CLint at 0.5 µM was 171 µL/min/mg.

For the compound `Clc1ccc([C@]23CN[C@H](CO2)C3)cc1Cl` (single isomer, unassigned) [516A], at SERT (serotonin release) (setting [2]), the EC50 was 18.2 nM. In addition, in series [1], the microsomal CLint at 0.5 µM came to 167 µL/min/mg.

For `Clc1ccc([C@@]23CN[C@@H](CO2)C3)cc1Cl` (single isomer, unassigned) [518A], the EC50 on SERT (serotonin release) (setting [2]) was 17 nM. For the same compound, the microsomal CLint at 0.5 µM in series [1] was 268 µL/min/mg.

Take `Clc1ccc(C23CNC(CO2)C3)cc1Cl` (centres unmarked) [522A, 1-(3,4-dichlorophenyl)-2-oxa-5-azabicyclo[2.2.1]heptane]: the EC50 at SERT (serotonin release) (setting [2]) is 19.1 nM; on SERT (serotonin release) (serotonin release, read-out: EC50 to influence SER release), 22 nM. In series [1], the microsomal CLint at 0.5 µM was found to be 83 µL/min/mg.
